In US9175030B2, “Derivatives of avicin D and methods of making and using thereof” (priority 2012, dated 2015):

Assays:
HepG2 = experiment: MTT growth inhibition, HepG2; format: cell-based, human; details: Homo sapiens, HepG2 cells, 72 hrs
Protocol: (§1) The growth inhibitory effects of avicin D and oxetane derivative were measured using the MTT [3-(4,5-dimethylthiazol-2-yl)-2,5-diphenyl tetrazolium bromide] reduction assay as described in Haridas et al. (2001). Cells were cultured with varying concentrations of avicin D or oxetane in 96-well plates for 72 hrs at 37° C. At the end of 72 hrs, cells were stained with MTT for 2 hrs and then incubated with lysis buffer (20% SDS in 50% N,N-dimethylformamide) for another 6 hrs. Optical density at 570 nm was used as a measure of cell viability.
(§2) The cell lines 769P, A498, CAKI-1, and CAKI-2 are derived from primary human renal-cell cancers (RCC). A549 is a human lung adenocarcinoma epithelial cell line. B16F10 is a mouse melanoma cell line. BT474, BT 474 M1, BT549, MCF7, […], and ZR751 are breast cancer cell lines. CCRF-CEM, Jurkat, and MOLT4 are leukemia cell lines. HELA is cell line derived from cervical caner. HepG2 is a human hepatocellular liver carcinoma cell line. JeKo-1 is a mantle cell lymphoma (MCL) cell line. LnCAP is a cell line was established from a metastatic lesion of human prostatic adenocarcinoma. MM.1 and RPMI-8226 are human multiple myeloma cell lines. OVCAR3 and SKOV3 are ovarian cancer cell lines. Panc-1 is a pancreatic cancer cell line. PC3 is a prostate cancer cell line. Raji is a Burkitt's lymphoma cell line. RL is a non-Hodgkin's lymphoma cell line. […]

B16F10 = experiment: MTT growth inhibition, B16F10; format: cell-based, mouse; details: Mus musculus, B16-F10, B16F10 cells, 72 hrs
Protocol: as §1, §2

CCRF-CEM = experiment: MTT growth inhibition, CCRF-CEM; format: cell-based; details: Homo sapiens, CCRF-CEM cells, 72 hrs
Protocol: as §1, §2

GM0131 = experiment: MTT growth inhibition, GM0131; format: cell-based; details: GM0131 wild type human fibroblast cells, 72 hrs
Protocol: as §1, §2

ZR751 = experiment: MTT growth inhibition, ZR751; format: cell-based; details: Homo sapiens, ZR-75-1, ZR751 cells, 72 hrs
Protocol: as §1, §2

MM1 = experiment: MTT growth inhibition, MM1; format: cell-based, human; details: Homo sapiens, MM1 cells, 72 hrs
Protocol: as §1, §2

CAKI-2 = experiment: MTT growth inhibition, CAKI-2; format: cell-based, human; details: Homo sapiens, CAKI-2 cells, 72 hrs
Protocol: as §1, §2

RPMI 8226 = experiment: MTT growth inhibition, RPMI 8226; format: cell-based, human; details: Homo sapiens, RPMI 8226 cells, 72 hrs
Protocol: as §1, §2

HS27 = experiment: MTT growth inhibition, HS27; format: cell-based; details: HS27 human foreskin fibroblast cells, 72 hrs
Protocol: as §1, §2

MOLT4 = experiment: MTT growth inhibition, MOLT4; format: cell-based; details: Homo sapiens, MOLT-4, MOLT4 cells, 72 hrs
Protocol: as §1, §2

Panc-1 = experiment: MTT growth inhibition, Panc-1; format: cell-based; details: Homo sapiens, Panc-1 cells, 72 hrs
Protocol: as §1, §2

Hela = experiment: MTT growth inhibition, Hela; format: cell-based; details: Homo sapiens, Hela cells, 72 hrs
Protocol: as §1, §2

MINO = experiment: MTT growth inhibition, MINO; format: cell-based; details: Homo sapiens, MINO cells, 72 hrs
Protocol: as §1, §2

WSU-DLCL2 = experiment: MTT growth inhibition, WSU-DLCL2; format: cell-based, human; details: Homo sapiens, WSUDLCL2, WSU-DLCL2 cells, 72 hrs
Protocol: as §1, §2

Nrf2 = Nrf2 activation, ARE-driven luciferase in Hep G2 cells; format: cell-based, human; details: Hep G2 cells transfected with hARE-luc, luciferase activity
Protocol: Activation of Nrf2 was assessed by measuring the antioxidant response element (ARE)-mediated gene expression as described previously by Haridas et al., 2004, which is incorporated herein by reference. Briefly, ARE is a cis-acting regulatory sequence identified in the promoter region of several genes encoding phase 2 detoxification enzymes, that binds to Nrf2. Hep G2 (human hepatocarcinoma) cells were transfected with a human ARE-driven luciferase (luc) containing plasmid, hARE-luc. Following exposure to avicin D/compound 8, the luciferase activity induced in these cells was measured using a dual-luciferase assay kit (Promega) according to the manufacturer's protocol.

769P = experiment: MTT growth inhibition, 769P; format: cell-based, human; details: Homo sapiens, 769P cells, 72 hrs
Protocol: as §1, §2

BT474 M1 = experiment: MTT growth inhibition, BT474 M1; format: cell-based; details: Homo sapiens, BT474M1, BT474 M1 cells, 72 hrs
Protocol: as §1, §2

BT549 = experiment: MTT growth inhibition, BT549; format: cell-based; details: Homo sapiens, BT-549, BT549 cells, 72 hrs
Protocol: as §1, §2

CAKI-1 = experiment: MTT growth inhibition, CAKI-1; format: cell-based, human; details: Homo sapiens, CAKI-1 cells, 72 hrs
Protocol: as §1, §2

OVCAR3 = experiment: MTT growth inhibition, OVCAR3; format: cell-based; details: Homo sapiens, OVCAR-3, OVCAR3 cells, 72 hrs
Protocol: as §1, §2

JEKO-1 = experiment: MTT growth inhibition, JEKO-1; format: cell-based; details: Homo sapiens, JEKO-1 cells, 72 hrs
Protocol: as §1, §2

Jurkat = experiment: MTT growth inhibition, Jurkat; format: cell-based, human; details: Homo sapiens, Jurkat cells, 72 hrs (Table 5)
Protocol: as §1, §2

U2OS = experiment: MTT growth inhibition, U2OS; format: cell-based, human; details: Homo sapiens, U2OS cells, 72 hrs
Protocol: as §1, §2

A549 = experiment: MTT growth inhibition, A549; format: cell-based, human; details: Homo sapiens, A549 cells, 72 hrs
Protocol: as §1, §2

3T3 L1 = experiment: MTT growth inhibition, 3T3 L1; format: cell-based; details: Mus musculus, 3T3 L1 fibroblast cells, 72 hrs
Protocol: as §1, §2

SKOV3 = experiment: MTT growth inhibition, SKOV3; format: cell-based; details: Homo sapiens, SK-OV-3, SKOV3 cells, 72 hrs
Protocol: as §1, §2

PC3 = experiment: MTT growth inhibition, PC3; format: cell-based; details: Homo sapiens, PC-3, PC3 cells, 72 hrs
Protocol: as §1, §2

[1] = test system: Jurkat (human T-cell leukemia) cells; experiment: Reduction in cell viability, Jurkat cells (Table 6); format: cell-based; details: Homo sapiens, 50% reduction in cell viability
Source text: The IC50 values indicate the concentrations of avicin D/compound 8 required to induce a 50% reduction in call viability. These studies were done in Jurkat (human T-cell leukemia) cells and have been described previously in Haridas et al., 2001, which is incorporated herein by reference.

HEK293 = experiment: MTT growth inhibition, HEK293; format: cell-based, human; details: Homo sapiens, HEK293 cells, 72 hrs
Protocol: as §1, §2

RL = experiment: MTT growth inhibition, RL; format: cell-based; details: Homo sapiens, RL cells, 72 hrs
Protocol: as §1, §2

MCF7 = experiment: MTT growth inhibition, MCF7; format: cell-based; details: Homo sapiens, MCF7 cells, 72 hrs
Protocol: as §1, §2

U266 = experiment: MTT growth inhibition, U266; format: cell-based; details: Homo sapiens, U-266, U266 cells, 72 hrs
Protocol: as §1, §2

LnCAP = experiment: MTT growth inhibition, LnCAP; format: cell-based, human; details: Homo sapiens, LnCAP cells, 72 hrs
Protocol: as §1, §2

A498 = experiment: MTT growth inhibition, A498; format: cell-based, human; details: Homo sapiens, A498 cells, 72 hrs
Protocol: as §1, §2

BT474 = experiment: MTT growth inhibition, BT474; format: cell-based; details: Homo sapiens, BT-474, BT474 cells, 72 hrs
Protocol: as §1, §2

Raji = experiment: MTT growth inhibition, Raji; format: cell-based; details: Homo sapiens, Raji cells, 72 hrs
Protocol: as §1, §2

C=CC(C)(O)CCC1OCC1C(=O)O[C@@H]1C(C)O[C@@H](O[C@](C)(C=C)CC/C=C(\CO)C(=O)O[C@H]2C[C@@]3(C(=O)O[C@@H]4OC(CO)[C@@H](O)C(O)C4O[C@@H]4OC(C)[C@H](O[C@@H]5O[C@@H](CO)[C@H](O)[C@@H]5O)C(O[C@@H]5OC(CO)[C@@H](O)C(O)C5O)C4O)C(CC2(C)C)C2=CCC4[C@@]5(C)CC[C@H](O[C@@H]6OC(CO[C@@H]7OC(C)[C@H](O)C(O)C7O[C@@H]7OC[C@@H](O)C(O)C7O)[C@@H](O)C(O)C6NC(C)=O)C(C)(C)C5CC[C@@]4(C)[C@]2(C)C[C@H]3O)C(O)C1O (stereo partly drawn) [Compound 8]
IC50 (HepG2): 310 nM | IC50 (B16F10): 140 nM | IC50 (CCRF-CEM): 630 nM | IC50 (GM0131): 12000 nM | IC50 (ZR751): 340 nM | IC50 (MM1): 30 nM | IC50 (CAKI-2): 490 nM | IC50 (RPMI 8226): 160 nM | IC50 (HS27): 2500 nM | IC50 (MOLT4): 200 nM | IC50 (Panc-1): 310 nM | IC50 (Hela): 1870 nM | IC50 (MINO): 60 nM | IC50 (WSU-DLCL2): 140 nM | Fold Nrf2 activation (Nrf2): 0.98 | IC50 (769P): 150 nM | IC50 (BT474 M1): 700 nM | IC50 (BT549): 1400 nM | IC50 (CAKI-1): 280 nM | IC50 (OVCAR3): 210 nM | IC50 (JEKO-1): 160 nM | IC50 (Jurkat): 90 nM | IC50 (U2OS): 1200 nM | IC50 (A549): 1200 nM | IC50 (3T3 L1): 800 nM | IC50 (SKOV3): 420 nM | IC50 (PC3): 190 nM | IC50 [1]: 40 nM | IC50 (HEK293): 6800 nM | IC50 (RL): 80 nM | IC50 (MCF7): 2600 nM | IC50 (U266): 80 nM | IC50 (LnCAP): 190 nM | IC50 (A498): 220 nM | IC50 (BT474): 900 nM | IC50 (Raji): 620 nM
